According to patent US20250057928A1, “VACCINE COMPOSITION FOR INDUCING ANTI-IL-23 ANTIBODY” (OSAKA UNIVERSITY, priority 2021, published 2025):
Where no end group is shown, it is not given here.

Key:
[1] = system: BALB/c mice; assay: rmIL-23-induced mouse auricle inflammation model; format: in vivo
Protocol: AJP001 conjugated peptide (SEQ ID NO: 2) was dissolved in physiological saline and intradermally administered to BALB/c mice (female, 6-week-old, N=8) at 1 mg/body 3 times at two-week intervals. At the time point of 6 weeks after the initial administration, rmIL-23 was administered intradermally to the ear to induce inflammation. With the first administration as Day 0, rmIL-23 was administered 4 times in total on Days 2, 4, and 7. As a control group, an rmIL-23 group without administration of peptide was provided. Auricular thickness was measured using a thickness gauge on each day of administration of rmIL-23 and on Day 9. In order to measure the mRNA expression of IL-17A, IL-22, IL-1β, LCN-2, and CXCL-2 in the auricle, the auricle was collected on the third day of rmIL-23 administration under the same conditions. For mRNA evaluation, a normal group without administration of rmIL-23 was set. […] Using TaqMan Gene Expression Assays (S18: Mm02601777_g1; CXCL-2: Mm00436450_m1; IL-17A: Mm00439618_m1; IL-22: Mm01226722_m1; IL-1β: Mm00434228_m1; LCN-2: Mm01324470_m1), Ct value was measured using Applied Biosystems 7900HT Fast Real Time PCR System. The mRNA expression level was calculated by the ΔΔCt method and evaluated as a relative value to the normal group. […]

[2] = system: epitope peptide; assay: Antibody titer (GMT) of serum of hairless rats, ELISA; format: in vivo, rat; conditions: 1 mg/body intradermal 3 times at two-week intervals, serum at 6 weeks
Protocol: AJP001 conjugated peptide having one of the B cell epitope sequences of SEQ ID NOs: 1-5 was dissolved in physiological saline and intradermally administered twice to BALB/c mice (female, 6-week-old, N=5-6) at 0.5 mg/body at 2-week intervals. Blood was collected before administration and 5 weeks after the initial administration, and the antibody titer against each AJP001 conjugated peptide and the binding ability to recombinant mouse IL-23 protein (rmIL-23) were measured by the ELISA method. Specifically, a 96-well plate immobilized with an epitope peptide dissolved at 10 μg/mL in carbonate buffer was blocked with 5% skim milk/PBS, and then serum serially diluted with 5% skim milk/PBS was added, and the mixture was left standing at 4° C. overnight. […] After washing the wells with PBS-T, TMB solution (SIGMA) was added, the wells were allowed to stand for 30 min in the dark, the reaction was stopped by adding 0.5M H2SO4, and the absorbance at 450 nm was measured using a plate reader. The serum dilution rate that gave 1/2 (OD=1.75) of the maximum absorbance was defined as the antibody titer, and the geometric mean titer: GMT was calculated from the individual values. Binding to IL-23 protein was measured by the ELISA method in the same manner as the antibody titer, using rmIL-23 (Antibodies-online GmbH) as the solid-phased antigen and goat serum for blocking. […]

[3] = system: recombinant mouse IL-23 protein (rmIL-23); assay: Binding of mouse antiserum to rmIL-23, ELISA; conditions: antiserum of BALB/c mice
Protocol: […] […] Specifically, a 96-well plate immobilized with an epitope peptide dissolved at 10 μg/mL in carbonate buffer was blocked with 5% skim milk/PBS, and then serum serially diluted with 5% skim milk/PBS was added, and the mixture was left standing at 4° C. overnight. After washing the wells with PBS-T, HRP-labeled anti-mouse IgG antibody (GE Healthcare) diluted with 5% skim milk/PBS was added and the mixture was shaken at room temperature for 3 hr. After washing the wells with PBS-T, TMB solution (SIGMA) was added, the wells were allowed to stand for 30 min in the dark, the reaction was stopped by adding 0.5M H2SO4, and the absorbance at 450 nm was measured using a plate reader. The serum dilution rate that gave 1/2 (OD=1.75) of the maximum absorbance was defined as the antibody titer, and the geometric mean titer: GMT was calculated from the individual values. Binding to IL-23 protein was measured by the ELISA method in the same manner as the antibody titer, using rmIL-23 (Antibodies-online GmbH) as the solid-phased antigen and goat serum for blocking.
AJP001 conjugated peptide (SEQ ID NO: 2) was dissolved in physiological saline and intradermally administered to BALB/c mice (female, 6-week-old, N=6) at 1 mg/body 3 times at two-week intervals, and blood was collected every 2 weeks until 8 weeks. […]

## SEQ ID NO 2: AJP001-Ahx-B cell epitope peptide conjugate; epitope SSSQQWQR (mouse 152-159) (not fully specified (N-terminus); listed as Mus musculus)
[1]; 1 mg/body 3 times, third day of rmIL-23 administration
  mRNA expression of IL-17A, IL-22, IL-1β, LCN-2, and CXCL-2 in auricle: suppressive action
[1]; 1 mg/body intradermal 3 times, rmIL-23 intradermal to ear from week 6
  increase in auricular thickness: suppressive action
[2]
  antibody titer (GMT): increase
[3]; 0.5 mg/body twice, 5 weeks after initial administration
  binding to rmIL-23: confirmed
[3]; 1 mg/body 3 times, 6 weeks
  binding ability to rmIL-23: contained antibodies that bind to rmIL-23
